# Laboratory results reported in article PMC11500415, “Chemical inhibition of stomatal differentiation by perturbation of the master-regulatory bHLH heterodimer via an ACT-Like domain” (Nature Communications, 2024).
# Several values for one entry are separate records, joined by “and”; a condition that tells them apart may be missing. Equal entries are not always repeated. Where two headings read alike, the source gives them in different places.
# Molecular target: T1, MUTE_ACTL (Arabidopsis thaliana, UniProt Q9M8K6)
# T1 construct: MUTE-ACTL (114-202); made in house; host or cells: E. coli BL21
# Test: BLI direct binding
# Parameters: species or system A. thaliana
# Conditions: for binding to MUTE by BLI (in words): BLI (Supplementary Table 3)
# Source text: A. thaliana SCRM (1-494), ΔNSPCH (98-364), MUTE (1-202), ΔNFAMA (190-414), MUTEΔC (1-114), MUTER133A_R134A, MUTEE162A_E163A, MUTER133A_R134A_E162A_E163A, SCRM-ACTL (405-494), MUTE-ACTL (114-202), SPCH-ACTL (285-364), FAMA-ACTL (306-414), MUTE_ACTLR133A_R134A, MUTE_ACTLE162A_E163A, MUTE_ACTLR133A_R134A_E162A_E163A were cloned into pGEX-4T-1 vector with an N-terminal GST tag and a thrombin cleavage sequence. For protein expression, the constructs were transformed into E. coli strain BL21. For each transformant, a single colony was selected and incubated in 10 ml LB liquid media. The overnight-incubated E. coli suspensions were transferred to 1 L LB medium and incubated at 37 °C for around 2 h until the OD600 reached 0.4–0.6. The isopropyl β-D-1-thiogalactopyranoside ([…] of final concentration) was added to the cultures and the strains were incubated at 22 °C for a further 18 h. GST-fused proteins were purified using glutathione agarose resin. The soluble portion of the cell lysate was loaded onto a GST-Sepharose column. Nonspecifically bound proteins were removed by washing the column with 20 mM Tris pH 8.0, 200 mM NaCl. The bound GST-fused protein was eluted with 10 mm glutathione and 20 mM Tris pH 8.0, 200 mM NaCl. The GST-fused proteins were exchanged with phosphate-buffered saline buffer, and then the solution was treated with 50 μg of thrombin for 10–12 h at 16 ^οC. The GST portion of the protein was cleaved during thrombin digestion, and then the whole solution was reloaded onto the glutathione S-transferase column to obtain pure protein. The purified proteins were further purified by gel filtration on a Superdex-200 (GE) column using fast protein liquid chromatography and phosphate buffer (pH 7.2) as the eluent. The purity of the protein was checked by SDS-PAGE. For detailed lists of oligo DNA and plasmid information, see Supplementary Tables 5, 6, respectively.
# The binding affinities of SCRM to MUTE / MUTER133A_R134A / MUTEE162A_E163A / MUTER133A_R134A_E162A_E163A in presence and absence of Stomidazolone (3) and its analogues (AYSJ1059 (5) and AYSJ1061 (6)), and Stomidazolone / AYSJ1059 / AYSJ1061 interactions with GST-tagged SCRM, MUTE, SPCH, FAMA, MUTE ΔACTL, MUTE_ACTL, SCRM_ACTL, SPCH_ACTL and FAMA_ACTL, MUTER133A_134A, MUTEE162A_E163A, MUTER133A_R134A_E162A_E163A were measured using the Octet Red96 system (ForteBio, Pall Life Sciences) following the manufacturer’s protocols. The optical probes coated with anti-GST were first loaded with 500 nM GST tagged proteins before kinetic binding analyses. The experiment was performed in 96-well plates maintained at 30 °C. Each well was loaded with 200 μL reaction volume for the experiment. The binding buffer used in these experiments contained 1× PBS supplemented with 2% DMSO, 0.02% Tween20. […] There was no binding of the analytes to the unloaded probes as shown by the control wells. Binding kinetics to all seven concentrations of the analytes were measured simultaneously using default parameters on the instrument. The data were analyzed using the Octet data analysis software. The association and dissociation curves were fit with the 1:1 homogeneous ligand model. The kobs (observed rate constant) values were used to calculate Kd, with steady-state analysis of the direct binding. See Supplementary Table 3 for details.
# [1] = BLI steady state, MUTE_ACTL, read-out: KD (SS)
# [2] = MUTE_ACTL on Anti-GST sensor, Stomid 3.12 µM, rep-1, rep-2
# [3] = MUTE_ACTL on Anti-GST sensor, Stomid 6.25 µM, rep-1, rep-2
# [4] = MUTE_ACTL on Anti-GST sensor, Stomid 12.5 µM, rep-1, rep-2
# [5] = MUTE_ACTL on Anti-GST sensor, Stomid 25 µM, rep-1, rep-2
# [6] = MUTE_ACTL on Anti-GST sensor, Stomid 50 µM, rep-1, rep-2
# [7] = MUTE_ACTL on Anti-GST sensor, Stomid 100 µM, rep-1, rep-2
# [8] = MUTE_ACTL on Anti-GST sensor, Stomid 200 µM, rep-1, rep-2
# T1 sequence (Q9M8K6 114-202): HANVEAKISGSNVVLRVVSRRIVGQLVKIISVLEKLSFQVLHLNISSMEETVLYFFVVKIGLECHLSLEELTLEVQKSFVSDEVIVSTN
compound,measurement,setting,value
Cc1ccc(C2(NS(=O)(=O)c3ccccc3)N=C(c3ccccc3)C(=O)N2S(=O)(=O)c2ccccc2)cc1 (centres unmarked) [AYSJ1059],binding to MUTE by BLI (in words),,substantially weak binding
same,Kd,[1],126 ± 13.5 µM
same,Kd,"BLI, MUTE_ACTL, read-out: KD",123 ± 6.5 µM
O=C1C(c2ccccc2)=NC(NS(=O)(=O)c2ccccc2)(c2ccc(Br)cc2)N1S(=O)(=O)c1ccccc1 (centres unmarked) [AYSJ1061],binding to MUTE by BLI (in words),,substantially weak binding
same,Kd,[1],139 ± 9.5 µM
same,Kd,"BLI, MUTE_ACTL, read-out: KD",135 ± 5.5 µM
O=C1C(c2ccccc2)=NC(NS(=O)(=O)c2ccccc2)(c2ccccc2)N1S(=O)(=O)c1ccccc1 (centres unmarked) [Stomidazolone],Kd,[1],13.1 ± 1.3 µM
same,Response,"BLI, GST-MUTE_ACTL on Anti-GST sensor, Stomid 3.12 µM",0.126 and 0.163
same,Response,"BLI, GST-MUTE_ACTL on Anti-GST sensor, Stomid 6.25 µM",0.271 and 0.242
same,Response,"BLI, GST-MUTE_ACTL on Anti-GST sensor, Stomid 12.5 µM",0.425 and 0.391
same,Response,"BLI, GST-MUTE_ACTL on Anti-GST sensor, Stomid 25 µM",0.524 and 0.486
same,Response,"BLI, GST-MUTE_ACTL on Anti-GST sensor, Stomid 50 µM",0.535 and 0.563
same,Response,"BLI, GST-MUTE_ACTL on Anti-GST sensor, Stomid 100 µM",0.611 and 0.632
same,Response,"BLI, GST-MUTE_ACTL on Anti-GST sensor, Stomid 200 µM",0.625 and 0.645
same,RMax,"BLI, sensor at Stomid 3.12 µM",0.132 and 0.165
same,Kd,"BLI, sensor at Stomid 3.12 µM, read-out: KD",11.7 µM
same,RMax,"BLI, sensor at Stomid 6.25 µM",0.28 and 0.245
same,kobs,"BLI, sensor at Stomid 6.25 µM",0.00155 s⁻¹ and 0.00133 s⁻¹
same,kon,"BLI, sensor at Stomid 6.25 µM",4070 M⁻¹ s⁻¹
same,Kd,"BLI, sensor at Stomid 6.25 µM, read-out: KD",11.9 µM
same,RMax,"BLI, sensor at Stomid 12.5 µM",0.435 and 0.4
same,Req/Rmax(%),"BLI, sensor at Stomid 12.5 µM",49% and 87.1%
same,kdis,"BLI, sensor at Stomid 12.5 µM",0.0482 s⁻¹
same,kon,"BLI, sensor at Stomid 12.5 µM",4050 M⁻¹ s⁻¹
same,Kd,"BLI, sensor at Stomid 12.5 µM, read-out: KD",11.9 µM
same,RMax,"BLI, sensor at Stomid 25 µM",0.53 and 0.49
same,Req/Rmax(%),"BLI, sensor at Stomid 25 µM",61.4% and 83.8%
same,kdis,"BLI, sensor at Stomid 25 µM",0.0488 s⁻¹
same,kobs,"BLI, sensor at Stomid 25 µM",0.00162 s⁻¹ and 0.00294 s⁻¹
same,kon,"BLI, sensor at Stomid 25 µM",4070 M⁻¹ s⁻¹
same,Kd,"BLI, sensor at Stomid 25 µM, read-out: KD",11.8 µM and 12 µM
same,RMax,"BLI, sensor at Stomid 50 µM",0.545 and 0.565
same,Req/Rmax(%),"BLI, sensor at Stomid 50 µM",71.3%
same,kdis,"BLI, sensor at Stomid 50 µM",0.0473 s⁻¹
same,kon,"BLI, sensor at Stomid 50 µM",4010 M⁻¹ s⁻¹
same,Kd,"BLI, sensor at Stomid 50 µM, read-out: KD",11.9 µM and 11.8 µM
same,RMax,"BLI, sensor at Stomid 100 µM",0.621 and 0.64
same,Req/Rmax(%),"BLI, sensor at Stomid 100 µM",98.7%
same,kdis,"BLI, sensor at Stomid 100 µM",0.0476 s⁻¹
same,kon,"BLI, sensor at Stomid 100 µM",4080 M⁻¹ s⁻¹
same,Kd,"BLI, sensor at Stomid 100 µM, read-out: KD",12.1 µM and 11.7 µM
same,RMax,"BLI, sensor at Stomid 200 µM",0.63 and 0.655
same,Req/Rmax(%),"BLI, sensor at Stomid 200 µM",100%
same,kdis,"BLI, sensor at Stomid 200 µM",0.0474 s⁻¹
same,kobs,"BLI, sensor at Stomid 200 µM",0.0329 s⁻¹ and 0.0251 s⁻¹
same,kon,"BLI, sensor at Stomid 200 µM",4070 M⁻¹ s⁻¹
same,Kd,"BLI, sensor at Stomid 200 µM, read-out: KD",12 µM and 11.6 µM
same,Kd,"BLI, MUTE_ACTL, read-out: KD",12.2 ± 2.1 µM
same,RMax,[2],0.132 and 0.165
same,Response,[2],0.126 and 0.163
same,Kd,"MUTE_ACTL on Anti-GST sensor, Stomid 3.12 µM, rep-1, rep-2, read-out: KD",11.7 µM
same,RMax,[3],0.28 and 0.245
same,Response,[3],0.271 and 0.242
same,kobs,[3],0.00155 s⁻¹ and 0.00133 s⁻¹
same,kon,[3],4070 M⁻¹ s⁻¹
same,Kd,"MUTE_ACTL on Anti-GST sensor, Stomid 6.25 µM, rep-1, rep-2, read-out: KD",11.9 µM
same,RMax,[4],0.4 and 0.435
same,Req/Rmax(%),[4],87.1% and 49%
same,Response,[4],0.391 and 0.425
same,kon,[4],4070 M⁻¹ s⁻¹
same,Kd,"MUTE_ACTL on Anti-GST sensor, Stomid 12.5 µM, rep-1, rep-2, read-out: KD",11.9 µM
same,RMax,[5],0.49 and 0.53
same,Req/Rmax(%),[5],83.8% and 61.4%
same,Response,[5],0.486 and 0.524
same,kobs,[5],0.00294 s⁻¹ and 0.00162 s⁻¹
same,kon,[5],4080 M⁻¹ s⁻¹
same,Kd,"MUTE_ACTL on Anti-GST sensor, Stomid 25 µM, rep-1, rep-2, read-out: KD",12 µM and 11.8 µM
same,RMax,[6],0.545 and 0.565
same,Req/Rmax(%),[6],71.3%
same,Response,[6],0.535 and 0.563
same,Kd,"MUTE_ACTL on Anti-GST sensor, Stomid 50 µM, rep-1, rep-2, read-out: KD",11.9 µM and 11.8 µM
same,RMax,[7],0.621 and 0.64
same,Req/Rmax(%),[7],98.7%
same,Response,[7],0.611 and 0.632
same,Kd,"MUTE_ACTL on Anti-GST sensor, Stomid 100 µM, rep-1, rep-2, read-out: KD",11.7 µM
same,RMax,[8],0.63 and 0.655
same,Req/Rmax(%),[8],100%
same,Response,[8],0.625 and 0.645
same,kobs,[8],0.0329 s⁻¹ and 0.0251 s⁻¹
same,Kd,"MUTE_ACTL on Anti-GST sensor, Stomid 200 µM, rep-1, rep-2, read-out: KD",12 µM
same,koff,"read-out: kdis(1/s), BLI, sensor at Stomid 3.12 µM",0.0481 s⁻¹
same,koff,"read-out: kdis(1/s), BLI, sensor at Stomid 6.25 µM",0.0483 s⁻¹
same,koff,"read-out: kdis(1/s), BLI, sensor at Stomid 12.5 µM",0.0485 s⁻¹
same,koff,"read-out: kdis(1/s), BLI, sensor at Stomid 25 µM",0.0483 s⁻¹
same,koff,"read-out: kdis(1/s), BLI, sensor at Stomid 50 µM",0.0485 s⁻¹
same,koff,"read-out: kdis(1/s), BLI, sensor at Stomid 100 µM",0.0491 s⁻¹
same,koff,"read-out: kdis(1/s), BLI, sensor at Stomid 200 µM",0.0486 s⁻¹
same,koff,"read-out: kdis(1/s), MUTE_ACTL on Anti-GST sensor, Stomid 6.25 µM, rep-1, rep-2",0.0483 s⁻¹
same,koff,"read-out: kdis(1/s), MUTE_ACTL on Anti-GST sensor, Stomid 12.5 µM, rep-1, rep-2",0.0485 s⁻¹
same,koff,"read-out: kdis(1/s), MUTE_ACTL on Anti-GST sensor, Stomid 25 µM, rep-1, rep-2",0.0483 s⁻¹
same,koff,"read-out: kdis(1/s), MUTE_ACTL on Anti-GST sensor, Stomid 50 µM, rep-1, rep-2",0.0485 s⁻¹
same,kon,"read-out: kon(1/Ms), BLI, sensor at Stomid 3.12 µM",4110 M⁻¹ s⁻¹
same,kon,"read-out: kon(1/Ms), BLI, sensor at Stomid 6.25 µM",4050 M⁻¹ s⁻¹
same,kon,"read-out: kon(1/Ms), BLI, sensor at Stomid 12.5 µM",4070 M⁻¹ s⁻¹
same,kon,"read-out: kon(1/Ms), BLI, sensor at Stomid 25 µM",4080 M⁻¹ s⁻¹
same,kon,"read-out: kon(1/Ms), BLI, sensor at Stomid 50 µM",4070 M⁻¹ s⁻¹
same,kon,"read-out: kon(1/Ms), BLI, sensor at Stomid 100 µM",4060 M⁻¹ s⁻¹
same,kon,"read-out: kon(1/Ms), BLI, sensor at Stomid 200 µM",4040 M⁻¹ s⁻¹
same,kon,"read-out: kon(1/Ms), MUTE_ACTL on Anti-GST sensor, Stomid 6.25 µM, rep-1, rep-2",4050 M⁻¹ s⁻¹
same,kon,"read-out: kon(1/Ms), MUTE_ACTL on Anti-GST sensor, Stomid 12.5 µM, rep-1, rep-2",4050 M⁻¹ s⁻¹
same,kon,"read-out: kon(1/Ms), MUTE_ACTL on Anti-GST sensor, Stomid 25 µM, rep-1, rep-2",4070 M⁻¹ s⁻¹
same,kon,"read-out: kon(1/Ms), MUTE_ACTL on Anti-GST sensor, Stomid 50 µM, rep-1, rep-2",4070 M⁻¹ s⁻¹
same,kon,"read-out: kon(1/Ms), MUTE_ACTL on Anti-GST sensor, Stomid 100 µM, rep-1, rep-2",4080 M⁻¹ s⁻¹
same,kon,"read-out: kon(1/Ms), MUTE_ACTL on Anti-GST sensor, Stomid 200 µM, rep-1, rep-2",4070 M⁻¹ s⁻¹
